# Laboratory results as given in patent US4122184A, “Benzimidazole insecticides” (priority 1977, dated 1978).
# “And” between values parts separate entries of the source, which are not always exact repeats. Identical values can stand only once.
# Experiments:
# Oriental Cockroach = test: Oriental Roach Test; format: in vivo, Blatta orientalis (Orthoptera); details: 24 h
# Outline: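 Ten late-instar (3-4 month) nymphs per cage, held at 70°-80° F., sprayed with 5 ml of insecticide formulation at a specified amount. Cockroaches kept unfed and unwatered; mortality counted 24 hours post-spray, with insects staying on the cage bottom after light shaking scored dead.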
# Mexican Bean Beetle = Mexican Bean Beetle Test; format: in vivo, Epilachna varivestis (Coleoptera); details: 48 h
# Method: Cuttings of four six-day old Bountiful snap bean plants containing two leaves with approximately 5 square inches of leaf surface, are placed in water. The leaves are sprayed to wetting with about 5-10 ml. of a formulation containing a pre-determined level of the test compound. Half of the formulation is sprayed on the top surface and half on the bottom surface of the leaf using a DeVilbiss atomizer at 10 psi held at a distance of about 18 inches from the leaf. After the leaves have dried, they are cut from the stem and placed separately in petri dishes. Ten third instar, nonmolting Mexican bean beetle larvae grown on Bountiful snap beans are placed on each leaf. Controls consist of two leaves sprayed with 5 ml. of a 500 ppm malathion formulation (reference standard), two leaves sprayed with the formulation without the active ingredient and two leaves are held as untreated controls. After 48 hours, a mortality count is made and the amount of feeding noted. Moribund larvae are counted as dead.
# Bean Leaf Beetle [1] = test: Field trial, stomach poison test; format: in vivo
# Outline: (§1)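 Treated foliage (dipped, or sprayed at 10 psi, then dried) is offered to counted insects in dishes. Scoring of mortality uses a 0–9 scale at three time points up to 72 h.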
# [2] = test system: Southern Corn Rootworm Adults; test: Field trial, contact poison test; format: in vivo
# Outline: (§2)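 Infested host plants were kept in water-filled bottles with cellucotton around the stem and sprayed with different compound concentrations by atomizer at 10 psi from arm's length. Mortality was read at 24, 48 and 72 h on a 0–9 scale (0 = 0-10%, 9 = 91-100% mortality), averaged per concentration.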
# [3] = test system: Red-Legged Grasshopper Adults; test: Field trial, contact poison test; format: in vivo
# Outline: as §2
# Bean Leaf Beetle [4] = test: Field trial, contact poison test; format: in vivo
# Outline: as §2
# [5] = test system: Southern Corn Rootworm Adults; test: Field trial, stomach poison test; format: in vivo; parameters: key: mortality rating on a 0 to 9 scale
# Outline: as §1
# [6] = test system: Striped Cucumber Beetle Adults; test: Field trial, stomach poison test; format: in vivo; parameters: key: mortality rating on a 0 to 9 scale
# Outline: as §1
# Squash Bug Adults = test: Field trial, contact poison test; format: in vivo; parameters: key: 0-9 rating: 0 = 0-10% mortality, 9 = 91-100% mortality
# Outline: as §2
# Two-spotted Spider Mite = Two-spotted Spider Mite test; format: in vivo, Tetranychus urticae (Acarina); details: 48 h
# Method: The procedure in this test is the same as that in the previous aphid test, except that about 100 two-spotted spider mites from a stock colony raised on squash plants are transferred to a cut squash cotyledon. The mortality is estimated 48 hours after spraying. The same rating scale is used.
# Milkweed Bug = Milkweed Bug Test; format: in vivo, Oncopeltis fasciatus (Hemiptera); details: 48 h
# Outline: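 Ten chilled adult milkweed bugs per cage sprayed with 5 ml test formulation at 10 psi, then fed and watered. Mortality, counting moribund as dead, scored 48 h after spraying; 500 ppm malathion as reference, unsprayed cages as controls.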
# Southern Armyworm = Southern Armyworm Test; format: in vivo, Prodenia eridania (Lepidoptera); details: 48 h
# Method: Ten uniform Southern armyworm larvae about 1-1.5 cm. in length, grown on Henderson lima beans, are placed on excized bean leaves in petri dishes. The bean leaves are obtained and sprayed with the insecticide in the same way as are the snap bean leaves in the Mexican bean beetle test. The reference standards in this instance are leaves sprayed with 5 ml. 100 ppm DDT solution. Mortality counts are made 48 hours after spraying and again moribund larvae are counted as dead. Missing larvae which have probably been eaten are considered alive. The same rating scale is used as in the Mexican bean beetle test.
compound,measurement,setting,value
"CCCCCCOC(=O)n1c(C(F)(F)F)nc2c([N+](=O)[O-])cc(C(F)(F)F)cc21 [E, n-hexyl 2,6-bis(trifluoromethyl)-4-nitro-1-benzimidazolecarboxylate]",mortality rating,Oriental Cockroach; 500 ppm,8.5
same,mortality rating,Mexican Bean Beetle; 5 ppm,2.5
same,mortality rating,Mexican Bean Beetle; 10 ppm,7.5
same,average mortality rating,Bean Leaf Beetle [1]; 10 ppm,0 (0-10 percent)
same,average mortality rating,Bean Leaf Beetle [1]; 25 ppm,1
same,average mortality rating,Bean Leaf Beetle [1]; 50 ppm,0 (0-10 percent)
same,average mortality rating,[2]; 25 ppm,4
same,average mortality rating,[2]; 50 ppm,9 (91-100 percent mortality)
same,average mortality rating,[2]; 100 ppm,8
same,average mortality rating,[3]; 10 ppm,3
same,average mortality rating,[3]; 25 ppm,8
same,average mortality rating,[3]; 50 ppm,7
same,average mortality rating,Bean Leaf Beetle [4]; 25 ppm,0 (0-10 percent)
same,average mortality rating,Bean Leaf Beetle [4]; 50 ppm,0 (0-10 percent)
same,average mortality rating,Bean Leaf Beetle [4]; 100 ppm,8
same,average mortality rating,[5]; 25 ppm,5
same,average mortality rating,[5]; 50 ppm,5
same,average mortality rating,[5]; 100 ppm,5
same,average mortality rating,[6]; 10 ppm,3
same,average mortality rating,[6]; 25 ppm,1
same,average mortality rating,[6]; 50 ppm,5
same,average mortality rating,[6]; 100 ppm,5
same,average mortality rating,Squash Bug Adults; 125 ppm,0 (0-10 percent)
same,average mortality rating,Squash Bug Adults; 250 ppm,2
same,average mortality rating,Squash Bug Adults; 500 ppm,3
same,average mortality rating,Squash Bug Adults; 750 ppm,6
same,mortality rating,Two-spotted Spider Mite; 5 ppm,.5
same,mortality rating,Two-spotted Spider Mite; 10 ppm,8.5
same,mortality rating,Milkweed Bug; 10 ppm,.5
same,mortality rating,Milkweed Bug; 25 ppm,6.5
same,mortality rating,Milkweed Bug; 50 ppm,1.5
same,mortality rating,Southern Armyworm; 500 ppm,5.0
same,mortality rating,Southern Armyworm; 1000 ppm,7.5
"O=[N+]([O-])c1cc(C(F)(F)F)cc2[nH]c(C(F)(F)Cl)nc12 [L, 2-chlorodifluoromethyl-4-nitro-6-trifluoromethylbenzimidazole]",mortality rating,Oriental Cockroach; 500 ppm,5.5
same,mortality rating,Mexican Bean Beetle; 50 ppm,8.5
same,average mortality rating,Bean Leaf Beetle [1]; 10 ppm,1
same,average mortality rating,Bean Leaf Beetle [1]; 25 ppm,1
same,average mortality rating,Bean Leaf Beetle [1]; 50 ppm,0 (0-10 percent)
same,average mortality rating,[2]; 25 ppm,5
same,average mortality rating,[2]; 50 ppm,8
same,average mortality rating,[2]; 100 ppm,9 (91-100 percent mortality)
same,average mortality rating,[3]; 25 ppm,7
same,average mortality rating,[3]; 50 ppm,9 (91-100 percent mortality)
same,average mortality rating,Bean Leaf Beetle [4]; 25 ppm,0 (0-10 percent)
same,average mortality rating,Bean Leaf Beetle [4]; 50 ppm,4
same,average mortality rating,Bean Leaf Beetle [4]; 100 ppm,6
same,average mortality rating,[5]; 25 ppm,1
same,average mortality rating,[5]; 50 ppm,4
same,average mortality rating,[5]; 100 ppm,6
same,average mortality rating,Squash Bug Adults; 125 ppm,0 (0-10 percent)
same,average mortality rating,Squash Bug Adults; 250 ppm,6
same,average mortality rating,Squash Bug Adults; 500 ppm,6
same,average mortality rating,Squash Bug Adults; 750 ppm,9 (91-100 percent mortality)
same,mortality rating,Two-spotted Spider Mite; 5 ppm,7.5
same,mortality rating,Milkweed Bug; 100 ppm,4.5
same,mortality rating,Southern Armyworm; 500 ppm,1.5
"mixture of benzyl 2,6-bis(trifluoromethyl)-4-nitro-1-benzimidazolecarboxylate and benzyl 2,5-bis(trifluoromethyl)-7-nitro-1-benzimidazolecarboxylate",mortality rating,Oriental Cockroach; 50 ppm,1.5
same,mortality rating,Oriental Cockroach; 100 ppm,3 (31-40)
same,mortality rating,Oriental Cockroach; 250 ppm,.5
same,mortality rating,Oriental Cockroach; 500 ppm,1.5
same,mortality rating,Oriental Cockroach; 1000 ppm,9 (91-100)
same,mortality rating,Mexican Bean Beetle; 50 ppm,9 (91-100)
same,mortality rating,Mexican Bean Beetle; 100 ppm,9 (91-100)
same,mortality rating,Mexican Bean Beetle; 250 ppm,9 (91-100)
same,mortality rating,Mexican Bean Beetle; 500 ppm,9 (91-100)
same,mortality rating,Mexican Bean Beetle; 1000 ppm,9 (91-100)
same,average mortality rating,Bean Leaf Beetle [1]; 10 ppm,0 (0-10 percent)
same,average mortality rating,Bean Leaf Beetle [1]; 25 ppm,1
same,average mortality rating,Bean Leaf Beetle [1]; 50 ppm,2
same,average mortality rating,[2]; 25 ppm,4
same,average mortality rating,[2]; 50 ppm,4
same,average mortality rating,[2]; 100 ppm,9 (91-100 percent mortality)
same,average mortality rating,[3]; 25 ppm,9 (91-100 percent mortality)
same,average mortality rating,[3]; 50 ppm,9 (91-100 percent mortality)
same,average mortality rating,Bean Leaf Beetle [4]; 25 ppm,0 (0-10 percent)
same,average mortality rating,Bean Leaf Beetle [4]; 50 ppm,2
same,average mortality rating,Bean Leaf Beetle [4]; 100 ppm,7
same,average mortality rating,[5]; 25 ppm,1
same,average mortality rating,[5]; 50 ppm,2
same,average mortality rating,[5]; 100 ppm,4
same,average mortality rating,[6]; 10 ppm,4
same,average mortality rating,[6]; 25 ppm,4
same,average mortality rating,[6]; 50 ppm,5
same,average mortality rating,[6]; 100 ppm,7
same,mortality rating,Two-spotted Spider Mite; 10 ppm,8 (81-90)
same,mortality rating,Two-spotted Spider Mite; 25 ppm,7 (71-80)
same,mortality rating,Two-spotted Spider Mite; 50 ppm,9 (91-100)
same,mortality rating,Two-spotted Spider Mite; 100 ppm,9 (91-100)
same,mortality rating,Two-spotted Spider Mite; 250 ppm,9 (91-100)
same,mortality rating,Two-spotted Spider Mite; 500 ppm,9 (91-100)
same,mortality rating,Two-spotted Spider Mite; 1000 ppm,9 (91-100)
same,mortality rating,Milkweed Bug; 10 ppm,0 (0-10)
same,mortality rating,Milkweed Bug; 25 ppm,0 (0-10)
same,mortality rating,Milkweed Bug; 50 ppm,7 (71-80)
same,mortality rating,Milkweed Bug; 250 ppm,8 (81-90)
same,mortality rating,Milkweed Bug; 500 ppm,8.5
same,mortality rating,Milkweed Bug; 1000 ppm,9 (91-100)
same,mortality rating,Southern Armyworm; 100 ppm,2 (21-30)
same,mortality rating,Southern Armyworm; 500 ppm,6 (61-70)
same,mortality rating,Southern Armyworm; 1000 ppm,7 (71-80)
"mixture of phenyl 2,6-bis(trifluoromethyl)-4-nitro-1-benzimidazolecarboxylate and phenyl 2,5-bis(trifluoromethyl)-1-benzimidazolecarboxylate",mortality rating,Oriental Cockroach; 50 ppm,0 (0-10)
same,mortality rating,Oriental Cockroach; 100 ppm,.5
same,mortality rating,Oriental Cockroach; 250 ppm,7 (71-80)
same,mortality rating,Oriental Cockroach; 500 ppm,6.5
same,mortality rating,Oriental Cockroach; 1000 ppm,5 (51-60)
same,mortality rating,Mexican Bean Beetle; 10 ppm,4 (41-50)
same,mortality rating,Mexican Bean Beetle; 25 ppm,3 (31-40)
same,mortality rating,Mexican Bean Beetle; 50 ppm,7 (71-80)
same,mortality rating,Mexican Bean Beetle; 100 ppm,9 (91-100)
same,mortality rating,Mexican Bean Beetle; 250 ppm,9 (91-100)
same,mortality rating,Mexican Bean Beetle; 500 ppm,9 (91-100)
same,mortality rating,Mexican Bean Beetle; 1000 ppm,9 (91-100)
same,average mortality rating,Bean Leaf Beetle [1]; 10 ppm,1
same,average mortality rating,Bean Leaf Beetle [1]; 25 ppm,0 (0-10 percent)
same,average mortality rating,Bean Leaf Beetle [1]; 50 ppm,0 (0-10 percent)
same,average mortality rating,[2]; 25 ppm,0 (0-10 percent)
same,average mortality rating,[2]; 50 ppm,3
same,average mortality rating,[2]; 100 ppm,7
same,average mortality rating,[3]; 25 ppm,1
same,average mortality rating,[3]; 50 ppm,7
same,average mortality rating,Bean Leaf Beetle [4]; 25 ppm,0 (0-10 percent)
same,average mortality rating,Bean Leaf Beetle [4]; 50 ppm,0 (0-10 percent)
same,average mortality rating,Bean Leaf Beetle [4]; 100 ppm,4
same,average mortality rating,[5]; 25 ppm,2 and 3
same,average mortality rating,[5]; 50 ppm,4 and 2
same,average mortality rating,[5]; 100 ppm,6 and 8
same,average mortality rating,[6]; 10 ppm,3
same,average mortality rating,[6]; 25 ppm,4
same,average mortality rating,[6]; 50 ppm,4
same,average mortality rating,[6]; 100 ppm,7
same,average mortality rating,Squash Bug Adults; 125 ppm,2
same,average mortality rating,Squash Bug Adults; 250 ppm,2
same,average mortality rating,Squash Bug Adults; 500 ppm,6
same,average mortality rating,Squash Bug Adults; 750 ppm,8
same,mortality rating,Two-spotted Spider Mite; 10 ppm,5.5
same,mortality rating,Two-spotted Spider Mite; 25 ppm,2 (21-30)
same,mortality rating,Two-spotted Spider Mite; 50 ppm,8 (81-90)
same,mortality rating,Two-spotted Spider Mite; 100 ppm,9 (91-100)
same,mortality rating,Two-spotted Spider Mite; 250 ppm,9 (91-100)
same,mortality rating,Two-spotted Spider Mite; 500 ppm,9 (91-100)
same,mortality rating,Two-spotted Spider Mite; 1000 ppm,9 (91-100)
same,mortality rating,Milkweed Bug; 250 ppm,1 (11-20)
same,mortality rating,Milkweed Bug; 500 ppm,9 (91-100)
same,mortality rating,Milkweed Bug; 1000 ppm,9 (91-100)
same,mortality rating,Southern Armyworm; 250 ppm,1 (11-20)
same,mortality rating,Southern Armyworm; 500 ppm,1 (11-20)
same,mortality rating,Southern Armyworm; 1000 ppm,1 (11-20)
